Experimental findings from ChEMBL document CHEMBL1208699, “BACE-1 hydroxyethylamine inhibitors using novel edge-to-face interaction with Arg-296” (Bioorg Med Chem Lett, 2010) are described below.

Holding throughout (format): ADME, organism-based
Parameters in all cases: dose 1 mg/kg, route intravenous

The nature of data set [1]: Blood clearance in rat at 1 mg/kg, iv. The note with it: whole blood.
Data set [2] is described as follows: Half life in rat at 1 mg/kg, iv. The note with it: in vivo.
Data set [3] can be described thus: Volume of distribution at steady state in rat at 1 mg/kg, iv. The settings on record: in vivo, read-out: Vdss.

For `CS(=O)(=O)N(c1ccccc1)c1cc(C(=O)N[C@@H](Cc2ccccc2)[C@H](O)CNCc2cccc(C(F)(F)F)c2)cc(C2CCCC2)c1`, the clearance in data set [1] came to 76 mL/min/kg. Besides, the half-life in data set [2] is 42 min. In addition, the Vd in data set [3] was determined as 9.3 L/kg.

As usually defined, the clearance is the volume of plasma or blood freed of the substance per unit of time. A higher clearance goes with efficient removal. For orientation: half-life means the time in which the quantity being followed falls by half. Read a low half-life as fast loss.
